These results are taken from patent publication US20260226071A1, “2, 4-DIANILINOPYRIMIDINE-BASED AURORA-A KINASE SELECTIVE DEGRADATION INDUCING COMPOUNDS” (UPPTHERA, INC., priority 2023, published 2026).

This experiment has as its target T1, Aurora kinase A (AURKA) (Homo sapiens, UniProt O14965).
T1 construct: endogenous in cells; host or cells: HeLa LgBit (AURKA-HiBit KI), CRISPR/Cas9 knock-in at the endogenous AURKA locus
T1 sequence (O14965 1-403): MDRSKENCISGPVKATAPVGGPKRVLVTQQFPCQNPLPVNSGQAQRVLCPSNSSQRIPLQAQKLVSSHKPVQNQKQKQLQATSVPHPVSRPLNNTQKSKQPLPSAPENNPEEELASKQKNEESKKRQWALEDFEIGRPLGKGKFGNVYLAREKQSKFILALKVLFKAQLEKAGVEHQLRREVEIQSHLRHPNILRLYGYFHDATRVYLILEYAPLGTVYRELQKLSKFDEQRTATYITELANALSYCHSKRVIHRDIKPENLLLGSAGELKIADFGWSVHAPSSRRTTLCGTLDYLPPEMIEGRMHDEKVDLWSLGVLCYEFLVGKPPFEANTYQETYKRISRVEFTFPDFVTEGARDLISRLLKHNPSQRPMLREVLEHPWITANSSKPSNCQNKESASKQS
Description: Luciferase assay for AURKA in HeLa LgBit (AURKA-HiBit KI) cell line. Format: cell-based. As to conditions: HeLa LgBit (AURKA-HiBit KI) cells, measured after 12 hours. The text has this: HeLa cell lines that stably express LgBit were constructed via LgBit vector transfection. Then, donor DNA and guide RNA for insertion of HiBit amino acid sequence at C-terminus of inherent Aurora kinase A (AURKA) genes were designed and constructed. Thereafter, they were transfected into the cell lines with CRISPR/Cas9 expression vector system. HiBit gene knock-in single cells were selected, passaged and used for the experiments.
For cell culture, DMEM (Gibco, Cat. No. 11995-065; Lot. No. 2562497), FBS (Gibco, Cat. No. 16000-044; Lot. No. 2511328P), Penicillin/Streptomycin (PS) (Gibco, Cat. No. 15140-122; Lot. No. 2585636), 90 mm^2 cell culture dish (SPL, Cat. No. 20100), 96-well white plate, PBS pH 7.4 (Gibco, […]), TrypLE™ Express (Gibco, Cat. No. 12605-010; Lot. No. 2522525), counting chamber (hematocytometer) (Hirschmann, Cat. No. 8100204; Lot. No. 8021087) and 0.4% Trypan Blue solution (DYNEBIO, Cat. No. CBT3710; Lot. No. 20231017) were used. Cells were cultured in DMEM supplemented with 10% FBS and 1% PS and incubated in CO2 incubator (Thermo, Cat. No. 4111) at 37° C., 5% CO2 condition.
HeLa LgBit (AURKA-HiBit KI) cell lines were cultured in 90 mm^2 cell culture dish, and 3×10^4 cells in […] of total medium volume were seeded and incubated for 18 hours in CO2 incubator. Then, Eudurazine (Promega, Cat. No. N247B; Lot. No. 495218) was added to each well to make up 1% of the total volume, followed by further incubation for 2 hours in CO2 incubator.
The present compounds were fully dissolved in DMSO (Sigma-Aldrich Cat. No. D2438, Lot. No. RNBL7287) and 10 nM or 100 nM of total concentration were used in the experiment. After adding the compounds in each well of 96-well white plate, the plate was placed in the plate reader (BMG Labtech, CLARIOstar Plus) for real-time analysis. The wavelength for analysis was set to […], and the luminescence value was measured after 12 hours. The luminescence value was analyzed through an Excel program.

In the case of `O=C1CCC(c2cccc(N3CCC(CN4CCN(C(=O)Cc5ccc(Nc6ncc(F)c(Nc7ccc(C(=O)Nc8ccccc8Cl)cc7)n6)cc5)CC4)CC3)c2)C(=O)N1` (centres unmarked) [Compound 2, N-(2-chlorophenyl)-4-((2-((4-(2-(4-((1-(3-(2,6-dioxopiperidin-3-yl)phenyl)piperidin-4-yl)methyl)piperazin-1-yl)-2-oxoethyl)phenyl)amino)-5-fluoropyrimidin-4-yl)amino)benzamide], the “luminescence value (Level)” value is recorded as “C (C is 0.5 to 0.7)” (10 nM compound) and “B (B is 0.2 to 0.4)” (100 nM compound).

For `CN(CC1CCN(c2ccc(C3CCC(=O)NC3=O)cc2)CC1)[C@@H]1CCC[C@@H]1NC(=O)c1ccc(Nc2ncc(F)c(Nc3ccc(C(=O)Nc4ccccc4Cl)cc3)n2)cc1` (stereo partly drawn) [Compound 10, N-(2-chlorophenyl)-4-((2-((4-(((1S,2R)-2-(((1-(4-(2,6-dioxopiperidin-3-yl)phenyl)piperidin-4-yl)methyl)(methyl)amino)cyclopentyl)carbamoyl)phenyl)amino)-5-fluoropyrimidin-4-yl)amino)benzamide], the “luminescence value (Level)” value is given as “D (D is 0.7 to 0.8)” (10 nM compound) and “C (C is 0.4 to 0.6)” (100 nM compound).

On to `CN(CC1CCN(c2ccc(C3CCC(=O)NC3=O)cc2)CC1)C1CC(NC(=O)c2ccc(Nc3ncc(F)c(Nc4ccc(C(=O)Nc5ccccc5Cl)cc4)n3)cc2)C1` (centres unmarked) [Compound 11, N-(2-chlorophenyl)-4-((2-((4-((3-(((1-(4-(2,6-dioxopiperidin-3-yl)phenyl)piperidin-4-yl)methyl)(methyl)amino)cyclobutyl)carbamoyl)phenyl)amino)-5-fluoropyrimidin-4-yl)amino)benzamide], for which the “luminescence value (Level)” value was “D (D is 0.7 to 0.8)” (10 nM compound) and “B (B is 0.2 to 0.4)” (100 nM compound).

In the case of `O=C1CCC(c2ccc(C#CC3CCN(C4CCN(C(=O)c5ccc(Nc6ncc(F)c(Nc7ccc(C(=O)Nc8ccccc8Cl)cc7)n6)cc5)CC4)CC3)cc2)C(=O)N1` (centres unmarked) [Compound 14, N-(2-chlorophenyl)-4-((2-((4-(4-((4-(2,6-dioxopiperidin-3-yl)phenyl)ethynyl)-[1,4′-bipiperidine]-1′-carbonyl)phenyl)amino)-5-fluoropyrimidin-4-yl)amino)benzamide], the “luminescence value (Level)” value (10 nM compound) was “D (D is 0.7 to 0.8)” and the “luminescence value (Level)” value (100 nM compound) is “C (C is 0.4 to 0.6)”.

On to `O=C1CCC(c2ccc(C#CC3CCN(C4CCN(C(=O)Cc5ccc(Nc6ncc(F)c(Nc7ccc(C(=O)Nc8ccccc8Cl)cc7)n6)cc5)CC4)CC3)cc2)C(=O)N1` (centres unmarked) [Compound 15, N-(2-chlorophenyl)-4-((2-((4-(2-(4-((4-(2,6-dioxopiperidin-3-yl)phenyl)ethynyl)-[1,4′-bipiperidin]-1′-yl)-2-oxoethyl)phenyl)amino)-5-fluoropyrimidin-4-yl)amino)benzamide], for which the “luminescence value (Level)” value reads like this: (10 nM compound) “D (D is 0.7 to 0.8)”; (100 nM compound) “B (B is 0.2 to 0.4)”.

Take `O=C1CCC(c2ccc(N3CCC(CCN4CCC(NC(=O)c5ccc(Nc6ncc(F)c(Nc7ccc(C(=O)Nc8ccccc8Cl)cc7)n6)cc5)CC4)CC3)cc2)C(=O)N1` (centres unmarked) [Compound 19, N-(2-chlorophenyl)-4-((2-((4-((1-(2-(1-(4-(2,6-dioxopiperidin-3-yl)phenyl)piperidin-4-yl)ethyl)piperidin-4-yl)carbamoyl)phenyl)amino)-5-fluoropyrimidin-4-yl)amino) benzamide]: the “luminescence value (Level)” value (10 nM compound) was “C (C is 0.5 to 0.7)” and the “luminescence value (Level)” value (100 nM compound) is reported as “B (B is 0.2 to 0.4)”.

Turning to `O=C1CCC(c2ccc(C#CC3CCN(C4CCN(C(=O)c5ccc(Nc6ncc(F)c(Nc7ccc(C(=O)Nc8ccccc8Cl)cc7)n6)cc5)CC4)CC3)cn2)C(=O)N1` (centres unmarked) [Compound 20, N-(2-chlorophenyl)-4-((2-((4-(4-((6-(2,6-dioxopiperidin-3-yl)pyridin-3-yl)ethynyl)-[1,4′-bipiperidine]-1′-carbonyl)phenyl)amino)-5-fluoropyrimidin-4-yl)amino)benzamide], the “luminescence value (Level)” value reads like this: (10 nM compound) “D (D is 0.7 to 0.8)”; (100 nM compound) “C (C is 0.4 to 0.6)”.

Consider `O=C1CCC(Nc2cccc(N3CCC(CN4CCN(C(=O)Cc5ccc(Nc6ncc(F)c(Nc7ccc(C(=O)Nc8ccccc8Cl)cc7)n6)cc5)CC4)CC3)c2)C(=O)N1` (centres unmarked) [Compound 25, N-(2-chlorophenyl)-4-((2-((4-(2-(4-((1-(3-((2,6-dioxopiperidin-3-yl)amino)phenyl)piperidin-4-yl)methyl)piperazin-1-yl)-2-oxoethyl)phenyl)amino)-5-fluoropyrimidin-4-yl)amino)benzamide], for which the “luminescence value (Level)” value runs as follows: (10 nM compound) “C (C is 0.5 to 0.7)”; (100 nM compound) “B (B is 0.2 to 0.4)”.

As for `O=C1CCC(Nc2ccc(N3C[C@@H]4[C@@H](CN5CCC(NC(=O)c6ccc(Nc7ncc(F)c(Nc8ccc(C(=O)Nc9ccccc9Cl)cc8)n7)cc6)CC5)[C@@H]4C3)cc2)C(=O)N1` (stereo partly drawn) [Compound 27, N-(2-chlorophenyl)-4-((2-((4-((1-(((1R,5S,6s)-3-(4-((2,6-dioxopiperidin-3-yl)amino)phenyl)-3-azabicyclo[3.1.0]hexan-6-yl)methyl)piperidin-4-yl)carbamoyl)phenyl)amino)-5-fluoropyrimidin-4-yl)amino)benzamide], the “luminescence value (Level)” value is, setting by setting: (10 nM compound) “B (B is 0.3 to 0.5)”; (100 nM compound) “B (B is 0.2 to 0.4)”.

Consider `O=C1CCC(Nc2ccc(N3CC4CC(C3)N(C3CCN(C(=O)c5ccc(Nc6ncc(F)c(Nc7ccc(C(=O)Nc8ccccc8Cl)cc7)n6)cc5)CC3)C4)cc2)C(=O)N1` (centres unmarked) [Compound 28, N-(2-chlorophenyl)-4-((2-((4-(4-(3-(4-((2,6-dioxopiperidin-3-yl)amino)phenyl)-3,6-diazabicyclo[3.2.1]octan-6-yl)piperidine-1-carbonyl)phenyl)amino)-5-fluoropyrimidin-4-yl)amino)benzamide], for which the “luminescence value (Level)” value was “C (C is 0.5 to 0.7)” (10 nM compound) and “B (B is 0.2 to 0.4)” (100 nM compound).

On to `O=C1CCC(Nc2ccc(N3CC4CC(C3)N(CC3CCN(C(=O)c5ccc(Nc6ncc(F)c(Nc7ccc(C(=O)Nc8ccccc8Cl)cc7)n6)cc5)CC3)C4)cc2)C(=O)N1` (centres unmarked) [Compound 29, N-(2-chlorophenyl)-4-((2-((4-(4-((3-(4-((2,6-dioxopiperidin-3-yl)amino)phenyl)-3,6-diazabicyclo[3.2.1]octan-6-yl)methyl)piperidine-1-carbonyl)phenyl)amino)-5-fluoropyrimidin-4-yl)amino)benzamide], for which the “luminescence value (Level)” value (10 nM compound) was “C (C is 0.5 to 0.7)” and the “luminescence value (Level)” value (100 nM compound) is on record as “B (B is 0.2 to 0.4)”.

For the molecule `O=C1CCC(Nc2ccc(N3CCC(CN4CC5(C4)CN(C(=O)c4ccc(Nc6ncc(F)c(Nc7ccc(C(=O)Nc8ccccc8Cl)cc7)n6)cc4)C5)CC3)cc2)C(=O)N1` (centres unmarked) [Compound 31, N-(2-chlorophenyl)-4-((2-((4-(6-((1-(4-((2,6-dioxopiperidin-3-yl)amino)phenyl)piperidin-4-yl)methyl)-2,6-diazaspiro[3.3]heptane-2-carbonyl)phenyl)amino)-5-fluoropyrimidin-4-yl)amino)benzamide], the “luminescence value (Level)” value runs as follows: (10 nM compound) “C (C is 0.5 to 0.7)”; (100 nM compound) “B (B is 0.2 to 0.4)”.

Take `O=C1CCC(Nc2ccc(N3CCC(CN4CCC5(CCN(C(=O)c6ccc(Nc7ncc(F)c(Nc8ccc(C(=O)Nc9ccccc9Cl)cc8)n7)cc6)C5)C4)CC3)cc2)C(=O)N1` (centres unmarked) [Compound 32, N-(2-chlorophenyl)-4-((2-((4-(7-((1-(4-((2,6-dioxopiperidin-3-yl)amino)phenyl)piperidin-4-yl)methyl)-2,7-diazaspiro[4.4]nonane-2-carbonyl)phenyl)amino)-5-fluoropyrimidin-4-yl)amino)benzamide]: the “luminescence value (Level)” value was “B (B is 0.3 to 0.5)” (10 nM compound) and “B (B is 0.2 to 0.4)” (100 nM compound).
